The values that follow come from patent CN110698367A, “一种n-(1-取代萘基)-4-甲氧基苯磺酰胺类化合物及其制备和应用” (Wenzhou Medical University, priority 2019, dated 2020).

In experiment [1] the test system is upstream kinase JAK [上游激酶JAK]. The note with it: background statement; in words; cited from earlier work.
The target in experiment [2] is upstream kinase Src [上游激酶JAK或Src] (Homo sapiens, UniProt P12931). The note with it: background statement; in words; cited from earlier work.
Experiment [3] deals with STAT3 phosphorylation [STAT3的磷酸化]. Particulars: background statement; in words; cited from earlier work.
In experiment [4] the test system is STAT1 phosphorylation [STAT1的磷酸化]. Particulars: background statement; in words; cited from earlier work.
Experiment [5] has as its system tumour cells [肿瘤细胞]. The note with it: background statement, in words; cited from earlier work.
The test system of experiment [6] is breast cancer cells MDA-MB-231 [乳腺癌细胞MDA-MB-231]. As to the kind of experiment: MTT antiproliferation assay, MDA-MB-231. The experiment is classed as cell-based. The note with it: Homo sapiens, 48 h. In general terms: Formazan colour is commonly taken as a measure of viable cells.
Experiment [7] concerns colon cancer cells HCT-116 [结肠癌细胞HCT-116]. As to the kind of experiment: MTT antiproliferation assay, HCT-116. The note with it: Homo sapiens, 48 h. The experiment is classed as cell-based.
Experiment [8] relates to non-small cell lung cancer cells A549 [非小细胞肺癌细胞A549]. The experiment in a line: MTT antiproliferation assay, A549. The experiment is classed as cell-based. The note with it: Homo sapiens, 48 h.

upstream kinase Src [上游激酶JAK或Src], sequence (P12931 whole entry): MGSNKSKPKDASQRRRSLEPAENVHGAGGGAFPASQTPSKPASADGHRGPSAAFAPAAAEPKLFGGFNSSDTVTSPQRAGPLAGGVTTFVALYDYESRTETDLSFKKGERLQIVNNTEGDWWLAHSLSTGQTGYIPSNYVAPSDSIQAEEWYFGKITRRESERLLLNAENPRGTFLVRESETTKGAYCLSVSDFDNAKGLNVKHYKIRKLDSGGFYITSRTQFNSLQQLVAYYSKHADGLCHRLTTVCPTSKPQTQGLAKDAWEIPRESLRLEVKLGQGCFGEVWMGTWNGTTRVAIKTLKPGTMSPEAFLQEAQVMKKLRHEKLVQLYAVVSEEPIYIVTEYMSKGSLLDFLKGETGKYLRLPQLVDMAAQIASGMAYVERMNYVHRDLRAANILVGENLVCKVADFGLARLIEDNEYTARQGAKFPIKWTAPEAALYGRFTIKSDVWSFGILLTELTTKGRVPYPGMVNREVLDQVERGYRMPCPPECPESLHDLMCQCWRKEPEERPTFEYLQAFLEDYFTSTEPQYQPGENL

On to `COc1ccc(S(=O)(=O)Nc2cc(-c3c(O)ccc4ccccc34)c(O)c3ccccc23)cc1` [C188-9], for which the “inhibition of upstream kinase JAK” value in experiment [1] is reported as “无明显抑制作用”. Also, in experiment [2], the “inhibition of upstream kinase Src” value was “无明显抑制作用”. In addition, the “inhibition of STAT3 phosphorylation” value in experiment [3] is listed as “能抑制STAT3的磷酸化”. The “inhibition of STAT1 phosphorylation” value in experiment [4] was “有一定的抑制作用”. For the same compound, in experiment [5], the IC50 (commonly the concentration that gives 50% inhibition) is “较高”.
Consider `COc1ccc(S(=O)(=O)Nc2ccc(-c3ccc(C#N)c(F)c3)c3ccccc23)cc1` [VI 10], for which the figures for the IC50 in experiment [6], in experiment [7] and in experiment [8] were 5.88 µM, 4.83 µM and 4.46 µM, respectively.
